Results on three compounds are retold here after patent US20250042886A1, “BIS(HETERO)ARYL THIOETHER OXADIAZINES AS FUNGICIDAL COMPOUNDS” (Bayer Aktiengesellschaft, priority 2021, published 2025).

A short description of data set [1]: Measurement of Log P values by HPLC on reversed phase columns (EEC directive 79/831 Annex V.A8). The conditions noted are these: Table 1, compounds of formula (I); method [a]: LC-UV, acidic range, 0.1% formic acid in water and acetonitrile. In kind it is physicochemical.
The test system of data set [2] is Alternaria brassicae. In words: In vivo preventive test on Alternaria brassicae (leaf spot on radish or cabbage). The following applies: 500 ppm of active ingredient, sprayed on young radish or cabbage plants 24 h before inoculation, evaluated 3 to 4 days after inoculation, read-out: efficacy. The procedure, abridged:
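Young radish or cabbage plants sprayed preventively with compound formulated in DMSO/acetone/Tween 80 and diluted in water; vehicle-treated plants as controls. Leaves inoculated by spraying an aqueous Alternaria brassicae spore suspension 24 h after treatment.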

The test system of data set [3] is Fusarium culmorum. In words: Fusarium culmorum in vitro cell test. The following applies: 120 h, 20 ppm of active ingredient, liquid culture, 5 days incubation, read-out: efficacy (inhibition of fungal growth). The format is cell-based. An outline of the steps:
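Spores in liquid mineral-salts/saccharose medium exposed to compounds (DMSO ≤1% final) for 5 days. Mycelium growth measured spectrometrically, with inhibition derived from absorbance relative to fungicide-free control wells.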

The test system of data set [4] is Pyrenophora teres. In words: Pyrenophora teres in vitro cell test. The format is cell-based. The following applies: 144 h, 20 ppm of active ingredient, liquid culture, 6 days incubation, read-out: efficacy (inhibition of fungal growth). An outline of the steps:
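Compounds in DMSO were added to P. teres spore suspensions in glucose/peptone/yeast-extract liquid medium, testing inhibition of spore germination and mycelium growth. After 6 days, mycelium growth was read by absorbance. Inhibition was calculated relative to fungicide-free control wells.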

The subject of data set [5] is Botrytis cinerea. In words: In vivo preventive test on Botrytis cinerea (grey mould). The following applies: 500 ppm of active ingredient, sprayed on young gherkin or cabbage plants 24 h before inoculation, evaluated 4 to 5 days after inoculation, read-out: efficacy. An outline of the steps: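 Compounds in DMSO/acetone/Tween 80 were diluted in water and sprayed onto young gherkin or cabbage plants; controls got solvent only. After 24 h, leaves were sprayed with an aqueous Botrytis cinerea spore suspension.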

Data set [6] has as its system Septoria tritici. In words: Septoria tritici in vitro cell test. In kind it is cell-based. The following applies: Zymoseptoria tritici, 168 h; 20 ppm of active ingredient; liquid culture, 7 days incubation; read-out: efficacy (inhibition of fungal growth). How it is done:
B-11. Septoria tritici In Vitro Cell Test • Solvent: DMSO • Culture medium: 1 g KH2PO4 (VWR), 1 g K2HPO4 (VWR), 0.5 g Urea (VWR), 3 g KNO3 (Prolabo), 10 g saccharose (VWR), 0.5 g MgSO4, 7H2O (Sigma), 0.07 g CaCl2, 2H2O (Prolabo), 0.2 mg MnSO4, H2O (Sigma), 0.6 mg CuSO4, 5H2O (Sigma), 7.9 mg ZnSO4, 7H2O (Sigma), 0.1 mg H3BO3 (Merck), 0.14 mg NaMoO4, 2H2O (Sigma), 2 mg thiamine (Sigma), 0.1 mg biotine (VWR), 4 mg FeSO4, 7H2O (Sigma), QSP 1 liter • Inoculum: spore suspension Fungicides were solubilized in DMSO and the solution used to prepare the required range of concentrations. […] A spore suspension of S. tritici was prepared and diluted to the desired spore density. Fungicides were evaluated for their ability to inhibit spore germination and mycelium growth in liquid culture assay. The compounds were added in the desired concentration to the culture medium with spores. […] Inhibition of fungal growth was determined by comparing the absorbance values in wells containing the fungicides with the absorbance in control wells without fungicides.

For data set [7], the system named is Colletotrichum lindemuthianum. In words: Colletotrichum lindemuthianum in vitro cell test. In kind it is cell-based. The following applies: 144 h, 20 ppm of active ingredient, liquid culture, 6 days incubation, read-out: efficacy (inhibition of fungal growth). An outline of the steps:
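C. lindemuthianum spores in liquid glucose–peptone–yeast extract medium were exposed to compounds dissolved in DMSO. After 6 days, mycelial growth was measured by absorbance, and inhibition was calculated against compound-free control wells.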

The test system of data set [8] is Colletotrichum lindemuthianum. In words: In vivo preventive test on Colletotrichum lindemuthianum (leaf spot on bean). The following applies: 168 h, 500 ppm of active ingredient, sprayed on young bean plants 24 h before inoculation, evaluated 7 days after inoculation, read-out: efficacy. How it is done:
B-4. […] The active ingredients were made soluble and homogenized in a mixture of Dimethyl sulfoxide/Acetone//Tween® 80 and then diluted in water to the desired concentration. The young plants of bean were treated by spraying the active ingredient prepared as described above. Control plants were treated only with an aqueous solution of Acetone/Dimethyl sulfoxide/Tween® 80. After 24 hours, the plants were contaminated by spraying the leaves with an aqueous suspension of Colletotrichum lindemuthianum spores.

For data set [9], the system named is Sphaerotheca fuliginea. In words: In vivo preventive test on Sphaerotheca fuliginea (powdery mildew on cucurbits). The conditions noted are these: Podosphaera fuliginea, 192 h; 500 ppm of active ingredient, sprayed on young gherkin plants 24 h before inoculation; evaluated 8 days after inoculation; read-out: efficacy. How it is done:
B-3. […] The active ingredients were made soluble and homogenized in a mixture of Dimethyl sulfoxide/Acetone//Tween® 80 and then diluted in water to the desired concentration. The young plants of gherkin were treated by spraying the active ingredient prepared as described above. Control plants were treated only with an aqueous solution of Acetone/Dimethyl sulfoxide/Tween® 80. After 24 hours, the plants were contaminated by spraying the leaves with an aqueous suspension of Sphaerotheca fuliginea spores.

Data set [10] has as its system Botrytis cinerea. In words: Botrytis cinerea in vitro cell test. In kind it is cell-based. The following applies: 144 h, 20 ppm of active ingredient, liquid culture, 6 days incubation, read-out: efficacy (inhibition of fungal growth). An outline of the steps:
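Compounds from DMSO stocks added at a range of concentrations to a defined mineral-salt/sucrose liquid medium inoculated with B. cinerea spores. After 6 days' incubation, mycelium growth was read by absorbance; inhibition of germination and growth was calculated against fungicide-free control wells.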

For data set [11], the system named is Pyricularia oryzae. In words: microbe, parasite or virus in culture. The format is cell-based. The following applies: 120 h, read-out: efficacy (inhibition of fungal growth), 20 ppm of active ingredient, liquid culture, 5 days incubation.
The test system of data set [12] is Alternaria alternata. In words: Alternaria alternata in vitro cell test. The format is cell-based. The conditions noted are these: 120 h, 20 ppm of active ingredient, liquid culture, 5 days incubation, read-out: efficacy (inhibition of fungal growth). An outline of the steps:
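Spores in glucose/mycological peptone/yeast extract liquid medium were exposed to DMSO-dissolved fungicides for 5 days. Inhibition of germination and mycelial growth was read spectrophotometrically, comparing absorbance against fungicide-free control wells.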

As to `Cc1cccc(Sc2cnc(C)nc2C2=NOC[C@@H](Cc3ccc(C)cc3Cl)N2)c1` (racemic) [Compound I-010], the chromatographic logP – broadly, lipophilicity estimated from chromatographic retention – in data set [1] was 5.17. The pest or weed control at 500 ppm in data set [2] lay within 80 to 89%; in data set [5], 90 to 100%; in data set [8] it was 90 to 100%; in [9], 90 to 100%. Further, the inhibition at 20 ppm in data set [3], in [4], in data set [6] and in data set [7] was 90 to 100% in each case.

Compound `Cc1ccc(C[C@H]2CON=C(c3nc(C)ncc3Sc3cccc(C(F)(F)F)c3)N2)c(Cl)c1` (racemic) [Compound I-013] gave a chromatographic logP in data set [1] of 5.28. Also, the pest or weed control at 500 ppm in data set [2] lay in the range of 80 to 89%; in [5], 90 to 100%; in data set [8] it was 90 to 100%; in data set [9], 90 to 100%. Further, the inhibition at 20 ppm in data set [10], in data set [6] and in data set [7] was 90 to 100% in each case.

`Cc1ccc(CC2CON=C(c3cc(Cl)nnc3Sc3cccc(C(F)(F)F)c3)N2)c(C)c1` (racemic) [Compound I-017, (5RS)-3-(6-chloro-3-{[3-(trifluoromethyl)phenyl]sulfanyl}pyridazin-4-yl)-5-(2,4-dimethylbenzyl)-5,6-dihydro-4H-1,2,4-oxadiazine] came in with a chromatographic logP in data set [1] of 5.27. Also, the inhibition (in general, the share of the control response that was lost under treatment) at 20 ppm was 80 to 89% in data set [11]; 90 to 100% in [10]; 90 to 100% in data set [6]; 80 to 89% in data set [12]; 90 to 100% in [7]. The pest or weed control at 500 ppm in data set [2], in [5], in data set [8] and in data set [9] was 90 to 100% throughout.
